The term EC50 denotes the concentration needed to bring the measured effect to its halfway point. A lower EC50 goes with a more potent agent.

The results in this text go back to patent US20250034170A1, “SMALL MOLECULE MODULATORS OF GLUCOCEREBROSIDASE ACTIVITY AND USES THEREOF” (Vanqua Bio, Inc., priority 2021, published 2025).

The target in the test is T1, GCase (Homo sapiens, UniProt P04062).
T1 construct: endogenous in cells; host or cells: HeLa cells
T1 sequence (P04062 40-536): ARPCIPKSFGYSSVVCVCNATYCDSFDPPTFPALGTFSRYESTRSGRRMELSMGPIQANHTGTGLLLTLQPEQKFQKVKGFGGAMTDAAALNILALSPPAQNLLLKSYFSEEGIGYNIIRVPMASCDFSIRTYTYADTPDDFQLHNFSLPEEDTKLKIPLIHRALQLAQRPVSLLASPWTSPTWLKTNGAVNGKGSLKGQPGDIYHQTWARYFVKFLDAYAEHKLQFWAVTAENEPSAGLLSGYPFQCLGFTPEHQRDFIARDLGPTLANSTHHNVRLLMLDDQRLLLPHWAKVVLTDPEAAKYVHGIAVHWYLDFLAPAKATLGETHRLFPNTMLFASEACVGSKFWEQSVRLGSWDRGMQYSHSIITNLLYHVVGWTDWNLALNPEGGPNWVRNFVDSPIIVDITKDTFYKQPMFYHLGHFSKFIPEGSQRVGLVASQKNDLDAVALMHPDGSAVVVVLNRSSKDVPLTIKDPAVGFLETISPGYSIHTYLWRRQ
Briefly: activation of GCase in a live cell PFB assay in HELA cells. In kind it is cell-based. The protocol: Exemplary compounds were evaluated for activation of GCase in a live cell PFB assay in HELA cells (essentially as described in Ysselstein et al., “LRRK2 kinase activity regulates lysosomal glucocerebrosidase in neurons derived from Parkinson's disease patients” Nature Communications (2019) 10:5570). […] EC50 ranges: A: <10 μM; B: >10-50 μM; C: >50-100 μM; D: >100 μM.

The mark [1] stands for this setting: activation of GCase, EC50 ranges.

Take `Cc1nc(N2CCC3(CCN(c4cnc5c(C)nn(CC(F)(F)F)c5n4)CC3)C2)cc(C(F)(F)F)n1` [Cmpd 611]: where the note is “EC50 given as range classes”, the 50% effective concentration (EC50) is above 100 µM.
Turning to `CCn1c(N2CCC3(CCN(c4cc(C(F)(F)F)nc(C)n4)C3)CC2)nc2c(cnn2CC(F)F)c1=O` [Cmpd 1102], under setting [1], the EC50 is below 10 µM.
On to `FC(F)Cn1ncc2ncc(N3CCC4(CC3)CC(COc3ccnc(C(F)(F)F)c3)C4)nc21` [Cmpd 695], for which the EC50 under setting [1] is below 10 µM.
`O=C1CC2(CCN(c3ncc4cnn(CC(F)F)c4n3)CC2)CN1c1cnc(C(F)(F)F)nc1` [Cmpd 916]: the EC50 under setting [1] is below 10 µM.
Regarding `FC(F)Cn1ncc2ncc(NC3CCC4(CCN(c5ccc(C(F)(F)F)nc5)CC4)C3)nc21` (stereo not drawn) [Cmpd 195], under “EC50 given as range classes”, the EC50 lay within 10 to 50 µM.
Take `Cc1nn(CC(F)F)c2nc(N3CCC4(CC3)CC(=O)N(c3cc(C(F)(F)F)ccn3)C4)cnc12` [Cmpd 283]: the EC50 under setting [1] is below 10 µM.
`FC(F)Cn1ncc2ncc(N3CCCC4(CN(c5cc(C(F)(F)F)ccn5)C4)C3)nc21` [Compound 38, 6-[1-(2,2-difluoroethyl)-1H-pyrazolo[3,4-b]pyrazin-6-yl]-2-[4-(trifluoromethyl)pyridin-2-yl]-2,6-diazaspiro[3.5]nonane] yielded a concentration giving a half-maximal response (EC50) under setting [1] of 10 to 50 µM.
`O=C1CC2(CCN(c3cnc4cnn(CC(F)F)c4n3)CC2)CN1Cc1ccc(Cl)cc1F` [Cmpd 421]: the half-maximal effective concentration (EC50) (EC50 given as range classes) was below 10 µM.
`FC(F)Cn1ncc2cnc(N3CCC4(C3)CN(c3nnc(C(F)(F)F)s3)C4)nc21` [Cmpd 1051]: the EC50 under setting [1] is 50 to 100 µM.
Under setting [1], `CCn1c(N2CCC3(CN(c4nnc(C(F)(F)F)s4)C3)C2)nc2c(cnn2CC(F)F)c1=O` [Cmpd 1050] registered a concentration giving a half-maximal response (EC50) of 10 to 50 µM.
`Fc1cc(F)cc(OC2CC3(CCCN(c4cnc5cnn(CC(F)F)c5n4)C3)C2)c1` (stereo not drawn) [Compound 31, 6-[1-(2,2-difluoroethyl)-1H-pyrazolo[3,4-b]pyrazin-6-yl]-2-(3,5-difluorophenoxy)-6-azaspiro[3.5]nonane]: under setting [1], the EC50 is 10 to 50 µM.
With `O=C1CC2(CN1c1cncc(C(F)(F)F)n1)C1CCC2CN(c2cnc3cnn(CC(F)F)c3n2)C1` (stereo not drawn) [Cmpd 806], the EC50 (EC50 given as range classes) is 10 to 50 µM.
The compound `CC(C)(C)Cn1ncc2ncc(N3CCC4(CN(c5ccnc(C(F)(F)F)c5)C4)C3)nc21` [Cmpd 1125] displayed an EC50 under setting [1] of 10 to 50 µM.
Take `FC(F)Cn1ncc2ncc(N3CC4(CCN(c5cccc(C(F)(F)F)n5)C4)C3)nc21` [Compound 185, 2-[1-(2,2-difluoroethyl)-1H-pyrazolo[3,4-b]pyrazin-6-yl]-6-[6-(trifluoromethyl)pyridin-2-yl]-2,6-diazaspiro[3.4]octane]: under “EC50 given as range classes”, the concentration giving a half-maximal response (EC50) is above 100 µM.
Turning to `CCc1nn(CC(F)F)c2nc(N3CCC4(CN(c5cc(C(F)(F)F)nc(C)n5)C4)C3)ncc12` [Cmpd 1066], under setting [1], the EC50 was in the range of 10 to 50 µM.
`FC(F)(F)Cn1ncc2cnc(N3CCC4(CN(c5cnc(C(F)(F)F)nc5)C4)C3)nc21` [Cmpd 432]: the 50% effective concentration (EC50) (EC50 given as range classes) is below 10 µM.
`O=C1N(c2ccc(C(F)(F)F)nc2)C(=O)C2(CCN(c3cnc4cnn(CC(F)F)c4n3)CC2)N1CCOC(F)(F)F` [Cmpd 877] yielded an EC50 under setting [1] below 10 µM.
Under setting [1], `Cc1nc(N2CC3(CCN(c4cc5c(cn4)cnn5CC(F)F)CC3)CC2=O)cc(C(F)(F)F)n1` [Cmpd 634] came in with an EC50 below 10 µM.
In turn, `Cc1nc(N2CC3(CCN(c4ncc5cnn(C(C)(C)C)c5n4)C3)C2)cc(C(F)(F)F)n1` [Cmpd 629] came in with an EC50 (EC50 given as range classes) of 10 to 50 µM.
The same measure, in the same setting: next, `O=S(=O)(c1ccccc1Cl)N1CC2(CCN(c3cnc4cnn(CC(F)F)c4n3)C2)C1` [Cmpd 393]: 10 to 50 µM.
With `Cn1c(N2CCC3(CN(c4ccnc(C(F)(F)F)c4)C3)C2=O)nc2c(cnn2CC(F)F)c1=O` [Cmpd 992], the EC50 (EC50 given as range classes) lay in the range of 10 to 50 µM.
As for `O=C(Cc1csc(-c2ccccc2)n1)N1CC2(CCCN(c3ccccc3)C2)C1` [Compound 58, 2-(2-phenyl-1,3-thiazol-4-yl)-1-{6-phenyl-2,6-diazaspiro[3.5]nonan-2-yl}ethan-1-one], the half-maximal effective concentration (EC50) under setting [1] is 10 to 50 µM.
`O=C1N(c2cc(C(F)(F)F)ccn2)C(=O)C2(CCN(c3cnc4cnn(CC(F)F)c4n3)CC2)N1CC1CC1` [Cmpd 711] registered an EC50 under setting [1] of 10 to 50 µM.
`FC(F)(F)Cn1ncc2ncc(N3CCC4(CCN(c5cc(C(F)(F)F)ccn5)CC4)C3)nc21` [Compound 139, 2-[1-(2,2,2-trifluoroethyl)-1H-pyrazolo[3,4-b]pyrazin-6-yl]-8-[4-(trifluoromethyl)pyridin-2-yl]-2,8-diazaspiro[4.5]decane] registered a concentration giving a half-maximal response (EC50) under setting [1] of 10 to 50 µM.
The compound `FC(F)Cn1ncc2ncc(N3CC4(CCCN(c5cccc(C(F)(F)F)n5)C4)C3)nc21` [Compound 25, 2-[1-(2,2-difluoroethyl)-1H-pyrazolo[3,4-b]pyrazin-6-yl]-6-[6-(trifluoromethyl)pyridin-2-yl]-2,6-diazaspiro[3.5]nonane] came in with an EC50 under setting [1] of 10 to 50 µM.
Under setting [1], `Cn1c(N2CCC3(CCN(c4cnc5cnn(CC(F)F)c5n4)CC3)C2=O)cc(=O)cc1C(F)(F)F` [Cmpd 666] yielded an EC50 below 10 µM.
With `FC(F)Cn1ncc2ncc(N3CCC4(CN(c5ccnc(OCC(F)(F)F)n5)C4)C3)nc21` [Cmpd 960], the EC50 under setting [1] fell in the range of 10 to 50 µM.
Turning to `Cc1cc(N2CC3(CCN(c4ncc5c(C)nn(C6COC6)c5n4)C3)C2)nc(C(F)(F)F)n1` [Cmpd 471], the EC50 under setting [1] is below 10 µM.
The same measure, in the same setting: the value for `O=C1N(c2ccc(C(F)(F)F)nc2)C(c2ccccc2)CC12CCN(c1cnc3cnn(CC(F)F)c3n1)CC2` (stereo not drawn) [Cmpd 291] was below 10 µM.
Still for that read-out and setting: next, `FC(F)Cn1ncc2ncc(N3CCC4(CCN(c5cnc(C(F)(F)F)nc5)C4)CC3)nc21` [Cmpd 736]: 10 to 50 µM; `FC(F)Cn1ncc2ncc(N3CCC4(CN(c5ccc(OC(F)(F)F)nc5)C4)C3)nc21` [Cmpd 451]: 10 to 50 µM.
In the case of `FC(F)(F)c1ccc(N2CCC3(CCN(c4cncc(-c5nncs5)n4)CC3)C2)cn1` [Cmpd 233], for the setting “EC50 given as range classes”, the EC50 was below 10 µM.
In the case of `Cc1nc(N2CCC3(CCN(c4ncc5c(C)nn(C6COC6)c5n4)CC3)C2)cc(C(F)(F)F)n1` [Cmpd 550], the concentration giving a half-maximal response (EC50) under setting [1] is above 100 µM.
Still for that read-out and setting: next, `CC1CC2(CCN(c3cccc(C(F)(F)F)n3)C2=O)CCN1c1cnc2cnn(CC(F)F)c2n1` (stereo not drawn) [Cmpd 668]: below 10 µM; `FC(F)Cn1ncc2ncc(N3CCCC4(CC(Oc5cccnc5C(F)(F)F)C4)C3)nc21` (stereo not drawn) [Compound 4, 6-[1-(2,2-Difluoroethyl)-1H-pyrazolo[3,4-b]pyrazin-6-yl]-2-{[2-(trifluoromethyl)pyridin-3-yl]oxy}-6-azaspiro[3.5]nonane]: below 10 µM.
With `FC(F)Cn1ncc2ncc(N3CCC4(CCN(c5cnc(C(F)(F)F)cn5)CC4)CC3)nc21` [Cmpd 814], the EC50 (EC50 given as range classes) was below 10 µM.
As to `FC(F)Cn1ncc2cnc(N3CCC4(CCN(c5ccnc(C(F)(F)F)c5)C4)C3)nc21` (stereo not drawn) [Cmpd 488], under setting [1], the EC50 was above 100 µM.
In the case of `O=C1CC2(CN1c1ccc(C(F)(F)F)nc1)C1CC2CN(c2cnc3cnn(CC(F)F)c3n2)C1` (stereo not drawn) [Cmpd 801], the concentration giving a half-maximal response (EC50) (EC50 given as range classes) is 50 to 100 µM.
`Cc1nn(CC(F)F)c2nc(N3CCC4(CC3)CN(c3cc(C(F)(F)F)ccn3)C4)cnc12` [Cmpd 490]: the concentration for a half-maximal effect (EC50) under setting [1] was below 10 µM.
As for `FC(F)Cn1ncc2ncc(N3CCC4(CC3)CC(Nc3cncc(C(F)(F)F)c3)C4)nc21` [Cmpd 228], where the note is “EC50 given as range classes”, the concentration giving a half-maximal response (EC50) is above 100 µM.
`CCn1c(=O)n(CC(F)F)c2nc(N3CCC4(CC3)CCN(c3cnc(C(F)(F)F)nc3C)C4)cnc21` [Cmpd 1085] yielded an EC50 under setting [1] below 10 µM.
The compound `Cc1cc(N2CC3(CCN(c4cnc5cnn(C6COC6)c5n4)C3)C2)nc(C)n1` [Cmpd 646] yielded a concentration giving a half-maximal response (EC50) under setting [1] of 10 to 50 µM.
Where the note is “EC50 given as range classes”, `FC(F)Cn1ncc2ncc(NC3CCC4(CC3)CN(c3ccc(C(F)(F)F)nc3)C4)nc21` [Cmpd 200] yielded an EC50 of 10 to 50 µM.
In turn, `O=C1N(Cc2ccc(C(F)(F)F)cn2)CCC12CCN(c1cnc3cnn(CC(F)F)c3n1)CC2` [Cmpd 310] came in with an EC50 under setting [1] of 10 to 50 µM.
Consider `COc1nc(N2CCC3(CCN(c4cnc5cnn(CC(F)F)c5n4)CC3)C2=O)ccc1C(F)(F)F` [Cmpd 783], for which the concentration for a half-maximal effect (EC50) (EC50 given as range classes) lay in the range of 50 to 100 µM.
As to `FC(F)Cn1ncc2ncc(N3CCC4(CCN(c5ccc(C(F)(F)F)nc5)C4)C3)nc21` (stereo not drawn) [Cmpd 482], the EC50 under setting [1] is 10 to 50 µM.
`FC(F)Cn1ncc2ncc(N3CCC4(CCN(c5cnnc(C(F)(F)F)c5)C4)CC3)nc21` [Cmpd 731] yielded a half-maximal effective concentration (EC50) under setting [1] of 10 to 50 µM.
Compound `Cc1ncc(N2CC3(CCN(c4cnc5c(C)nn(CC(F)(F)F)c5n4)C3)C2)c(C(F)(F)F)n1` [Cmpd 606] returned a concentration for a half-maximal effect (EC50) (EC50 given as range classes) of 50 to 100 µM.
The compound `Cc1nc(N2CCC3(CCN(c4cnc5cnn(CC(F)F)c5n4)C3)C2=O)cc(C(F)(F)F)n1` (stereo not drawn) [Cmpd 516] came in with an EC50 under setting [1] below 10 µM.
`Cn1c(N2CCC3(CCN(c4cnc(C(F)(F)F)nc4)C3)CC2)nc2c(cnn2CC(F)F)c1=O` [Cmpd 1015] displayed an EC50 (EC50 given as range classes) of 10 to 50 µM.
Turning to `FC(F)Cn1ncc2ncc(N3CCC4(CCN(c5ccnc(C(F)(F)F)n5)C4)CC3)nc21` [Cmpd 737], the 50% effective concentration (EC50) under setting [1] is below 10 µM.
Same read-out and setting: next, `FC(F)(F)c1cc(N2CC3(CCN(c4cnc5cnn([C@@H]6CCOC6)c5n4)C3)C2)ccn1` [Cmpd 1091]: above 100 µM.
Turning to `O=C1N(c2ccc(C(F)(F)F)nc2)C(=O)C2(CCN(c3cnc4cnn(CC(F)F)c4n3)CC2)N1Cc1cc(F)cc(F)c1` [Cmpd 818], the concentration giving a half-maximal response (EC50) (EC50 given as range classes) was below 10 µM.
Under “EC50 given as range classes”, `Cc1csc(CN2CC3(CCN(c4cnc5cnn(CC(F)F)c5n4)CC3)CC2=O)n1` [Cmpd 399] came in with a concentration for a half-maximal effect (EC50) of 10 to 50 µM.
